Measurements taken from a melting point compilation (Tetko et al.; mined from patent text by program, amines drawn as free bases though some values may be those of a salt).

Row | melting point [°C] | Compound
1 | > 300 | O=C(Nc1cccc2c1C(=O)c1c-2n[nH]c1-c1ccc(C(=O)N2CCC[C@H]2CNc2ccccc2)s1)NN1CCOCC1
2 | 134 to 135 | CC(=O)c1ccc2c(c1)-c1ccccc1-2
3 | 37 to 41 | CC(C)CCCC(C)NC(=O)Oc1ccc(Oc2ccccc2)cc1F (stereo not given)
4 | 131 to 132 | O=C(Nc1ccc(Br)cc1)C(=O)N1CCC(Cc2ccccc2)CC1
5 | 115 to 117 | Cc1nn(C)c2c1N=CN1CC(C)N=C21 (stereo not given)
6 | 145 to 155 | CC1CC2C3CCC4=CC(=O)C=CC4(C)C3=CCC2(C)C1C(=O)CN1CCN(c2cc(NC(C)(C)C)nc(NC(C)(C)C)n2)CC1 (stereo not given)
7 | 110 to 112 | COC(=O)c1c(Cl)cc(Cl)c2cc(Cl)ccc12
8 | 138 to 141 | O=C1NCc2ccc3ccccc3c21
9 | 80 to 82 | COC(=O)c1sc(C(=O)OC)c([N+](=O)[O-])c1OC
10 | 140 to 142 | COc1cc2c(cc1O)CCN(S(=O)(=O)c1ccccc1OC)C2
11 | 272 to 273 | CN(C)CC(=O)NCc1cccc(-c2cc3c(Nc4ccc(F)c(Cl)c4)ncnc3[nH]2)c1
12 | 91 to 92 | COC(=O)c1oc(C(C)(C)C)cc1N
13 | 209 to 210 | CCn1c(=O)c2c(nc(C=Cc3cc(OC)ccc3S(=O)(=O)O)n2C)n(CC)c1=O
14 | 146 to 150 | O=Cc1cccc(/C=C/c2ccc3ccc(Cl)cc3n2)c1
15 | 158 to 160 | O=S(=O)(c1nc(-c2ccc(Cl)c(Cl)c2)c(-c2cccs2)[nH]1)C(F)(F)C(F)F
16 | 100 to 101 | OC1(c2ccc(F)cc2)CCN(CCCc2noc3cc(F)ccc23)CC1
17 | 126 to 128 | CCOc1ccc(-c2ccc3c(c2)C=C(C(=O)OC)CCN3C=O)cc1F
18 | 106 | COc1cc(Cc2cnc(NCCSCc3nccs3)[nH]c2=O)ccn1
19 | 128 to 130 | CCOCc1nc2c(N)nc3cc(Br)cnc3c2n1CCCON=C(C)C
20 | 162 to 164 | CCC#CC(C)(C)NC(=O)C(CC)Oc1cncc(C(=O)O)c1 (stereo not given)
21 | 94 | COc1nccc2c([N+](=O)[O-])c(C)ccc12
22 | 89 to 100 | NC(=O)N(O)CC1CC(c2ccco2)C1 (stereo not given)
23 | 230 to 231 | CCCOc1ccccc1-c1nc(NC(C)=O)cc(=O)[nH]1
24 | 168 | CCOC(=O)c1cc(=O)c2ccc(NCc3ccccc3)c([N+](=O)[O-])c2o1

Row | melting point [°C] | Compound
25 | 94 to 95 | CC(=O)NC1(c2ccccc2)CC1
26 | 207 | CC1N(C)C=C([N+](=O)[O-])N1CCOC(=O)Nc1cccc(C(N)=O)c1 (stereo not given)
27 | 123 | CNC(=O)c1ccc(F)c2c1CC(N(CCCCc1c[nH]c3ccc(F)cc13)C1CCC1)CO2 (stereo not given)
28 | 151 to 153 | COc1ccc2oc(N(C=O)[C@@H](Cc3ccccn3)c3ncc(-c4ccc(-n5ccnc5)cc4)n3C)cc2c1
29 | 120 to 123 | CCCCSc1nc(N)nc2c1ncn2C1C=CC(CO)C1 (stereo not given)
30 | 186 to 190 | CCc1nc(NC)sc1C(=O)c1ccc(Cl)c([N+](=O)[O-])c1
31 | 111 | Cc1cc(C)c(S(=O)(=O)N2CCCC2c2ccc(F)cc2)c(C)c1 (racemic)
32 | 161 to 163 | CCS(=O)(=O)C(NC(C)=O)C(=O)NCc1ccccc1 (stereo not given)
33 | 102 to 115 | Cc1[nH]c(-c2ccccc2)nc1C=O
34 | 157 to 159 | CON=C(C)c1ccc2c(c1)ncn2-c1cccc(-c2nccs2)c1
35 | 58 to 61 | COc1cc2c(c(OC)c1)C(=O)CCC2
36 | 235 to 236 | NC(=O)c1cc(O)c(O)c([N+](=O)[O-])c1
37 | 139 to 141 | COc1ccc(N2CCN(c3c(C)c(C)c4c(c3C)C(c3cccs3)C(C)(C)O4)CC2)cc1 (stereo not given)
38 | 207 to 208 | CCOC(=O)c1ccc(-c2nc(O)c(C)s2)cc1
39 | 86 to 88 | CNC(=O)C(=NOCF)c1ccccc1COc1ccccc1C
40 | 66 to 67 | CCOc1nn(-c2ccccn2)cc1CCCOc1cccc(CC(=O)O)c1
41 | 154 to 156 | Cc1ccc(-c2ccc3nnn(Cc4ccc5ncccc5c4)c3n2)s1
42 | 314 to 316 | NS(=O)(=O)c1cc2[nH]c(-c3ccccc3)nc2cc1Cl
43 | 163 to 164 | COc1cc(O)c2c(=O)c(OC)c(-c3ccc(OC(=O)C(C)(C)C)c(OC)c3)oc2c1
44 | 244 to 247 | CC(C)(C)c1cc(C(=O)NNC(=O)c2occ(-c3ccccc3)c2-c2ccccc2)ccc1O
45 | 158 | CC1(C)CC(O)(C(F)(F)F)C(Nc2cccc3[nH]c(=O)ccc23)c2cc(O)c(Cl)cc21 (stereo not given)
46 | 247 | O=C(O)c1oc(-c2ccccc2)cc(=O)c1Br
47 | 160 | COC(C)(CC(=O)Nc1cccc(OC(=O)NC(C)C)c1)OC
48 | 177 | CC(=O)Oc1c2c(c3ccccc3c1OC(=O)CNC(=O)OC(C)(C)C)OC(C)(C)CC2

Row | melting point [°C] | Compound
49 | 154 to 155 | O=C(O)CCC(=C1SCCCS1)c1ccc(Oc2ccccc2)cc1
50 | 170 to 175 | O=CNC(C(=O)O)c1ccccc1 (stereo not given)
51 | 259 | CS(=O)(=O)c1cccc(NC(=O)c2cnn3c(C(F)(F)F)cc(-c4ccc(C(F)(F)F)cc4)nc23)c1
52 | 109 | CCC[C@H]1CC[C@H](CCCOc2ccc(C(=O)O[C@H](C)[C@@H](C)OC(=O)c3ccc(OCCC[C@H]4CC[C@H](CCC)CC4)cc3)cc2)CC1
53 | > 300 | O=C(O)c1ccc(-c2csc(-c3cccnc3)n2)cc1
54 | 250 to 255 | NC(C(=O)O)c1ccc(C(=O)O)cc1F (stereo not given)
55 | 244 to 245 | Cc1c(N2C[C@@H]3CCCN[C@@H]3C2)c(F)cc2c(=O)c(C(=O)O)cn([C@@H]3C[C@@H]3F)c12
56 | 163 to 164 | CCCCCC(=O)N1CCN2C[C@@H](c3ccccc3)c3ccccc3[C@@H]2C1 (relative stereo)
57 | 143 to 145 | CCc1[nH]n(C2CCCC2)c2nc(Cc3ccc(OC(=O)c4ccc(CN(CC)CC)cc4)cc3)nc(=O)c1-2
58 | 118 | CCc1nnc(-c2ccc(OC)cc2)n1-c1ccccc1
59 | 189 to 191 | CCn1nc(-c2cccc(Cl)c2)c(C(C)=O)c(Nc2cccc3cnccc23)c1=O
60 | 170 to 172 | Oc1ccc([C@H]2OCCN3[C@@H](CCc4ccccc4)CC[C@H]23)cc1 (racemic)
61 | 66 to 67 | CCCCCCCCCCCCCCOc1cccc(C(=O)N(Cc2ccccn2)C(C)=O)c1
62 | 44 | C=c1oc(=O)c(=O)oc1=C
63 | 130 to 132 | COc1ccc2c(Cc3c(Cl)cncc3Cl)nncc2c1C#CCCCc1ccccc1
64 | 198 to 199 | COc1cc(OC)cc(C(=O)N2CCc3cc(O)c(OC)cc3C2=O)c1
65 | 40 to 41 | CCCCCCCC(=O)CCC(C)=O
66 | 165 to 167 | CCOC(=O)c1sc(-n2cn[nH]c2=O)nc1C
67 | 216 to 217 | CCCCc1nc2cccc(CC(=O)O)c2n1Cc1ccccc1Cl
68 | 46 to 47 | CCCCCCCCCCCCCCOC(=O)CCCCc1cc(O)c(O)c([N+](=O)[O-])c1
69 | 117 to 119 | CCCCCCCCCCCCCCCCCCS(=O)(=O)c1cc2ccccc2c(N=Nc2ccc(OC)cc2)c1O
70 | 193 to 195 | O=C1NC(=O)C(c2cn(CCCO)c3ccccc23)=C1c1ccccc1[N+](=O)[O-]
71 | 107 to 109 | C/C(=C\c1ccc(OCCN2CCOCC2)cc1)c1ccc2c(c1)C(C)(C)CCC2(C)C
72 | 144 | Cc1ccc(N=c2sc3ncccc3c(=O)n2C)cc1

Row | melting point [°C] | Compound
73 | 271 to 273 | CC(=O)c1ccc(-n2c(-c3sc(Nc4ccccc4)nc3C)nc3ccccc3c2=O)cc1
74 | 182 to 183 | O=C1CCc2ccc(Oc3cccc(CN4CCN(c5cccc(Cl)c5Cl)CC4)c3)cc2N1
75 | 308 | O=c1c(-c2cccc(Cl)c2)coc2cc(O)c(O)cc12
76 | 33 to 34 | CCSCc1ccc(C(=O)c2ccc(Cl)cc2)cc1
77 | 127 to 129 | CCOc1ccc2c(c1)C(=O)N(c1ccc3sccc3c1)C2
78 | 161 to 162 | CCOC(=O)c1cnc2ccc(C#N)cc2c1NCc1ccc(OC)c(Cl)c1
79 | 250 to 251 | O=C(O)C1CCc2c(c3cccc(F)c3n2C(=O)c2ccccc2)C1 (stereo not given)
80 | 207 to 210 | COCc1ncccc1CN(CCn1cc(C)c2occc2c1=O)Cc1ccc2c(c1)NC(=O)C(C)(C)C(=O)N2CC(C)C
81 | 166 to 168 | COCc1nnc(-c2cccnc2)n1-c1c(C)c(Cl)cc2nc(OC)c(OC)nc12
82 | 118 to 123 | O=C1OCCN1CCC1=NCCN1
83 | 182 to 184 | COC(=O)C1(N)CCN(c2ncc3ncnc(Nc4ccc(F)c(Cl)c4)c3n2)CC1
84 | 143 to 145 | N#CC1(c2ccc(Cl)c(Cl)c2)CC(Cl)=C(Cl)N1CCO (stereo not given)
85 | 131 to 133 | Cc1cc(C2(C(F)(F)F)CC(n3cncn3)=NO2)ccc1NC(=O)c1cccc(I)c1C(=O)NC(C)C (stereo not given)
86 | 201 to 204 | CSc1ncc(C(C)c2cccnc2)c(=O)[nH]1 (stereo not given)
87 | 104 to 106 | CC(C)(C)OC(=O)NCC1(C(=O)O)CC1
88 | 225 | Cc1ncsc1CCNC(=O)c1cnc(N2CCN(C(=O)c3c(-c4ccccc4)n(C)c4cccnc34)CC2)cn1
89 | 125 to 126 | Oc1cccc(/C=C/c2ccccc2)c1
90 | 112 to 113 | Cc1oc(-c2ccccc2)nc1CCOc1ccc(CC(C)(C)C(=O)NS(C)(=O)=O)cc1
91 | 244 to 245 | O=[N+]([O-])c1cc2c(c([N+](=O)[O-])c1)NCC2
92 | 117 | CCCN(CCC(O)c1csc2ccc(F)cc12)C1COc2c(F)ccc(C(N)=O)c2C1 (stereo not given)
93 | 169 to 170 | CCN(CC)c1cccc2nc3n(c12)CC(=O)CCN3c1ccc(Cl)cc1Cl

Row | Compound | melting point [°C]
94 | CN1CCC2=C(CCCC2)C1Cc1ccc(O)cc1 (single isomer, unassigned; (-)) | 119 to 120
95 | CCc1nn(CCOC(N)=O)c(CC)c1Cc1cc(Cl)cc(Cl)c1 | 145 to 147
96 | CN1CC(CO)CC2(OCCCO)c3cccc4[nH]cc(c34)CC12 (stereo not given) | 189 to 195
97 | CC(C)(C)C1CCC(OO)(OO)CC1 | 83 to 84
98 | O=C(O)c1ccc(S(=O)(=O)C(Br)(Br)Br)cc1 | > 305
99 | CCOC(=O)C(=O)c1cn(CCN2CCOCC2)c2ccccc12 | 99 to 100
100 | N#Cc1ccc(SC2SCC(O)C(O)C2O)cc1 (stereo not given) | 175
